Assay results from US20240118268A1, “BIOMARKERS ON CELLULAR ENDOCRINE MODELS FOR ENDOCRINE DISRUPTION ASSESSMENT” (priority 2020, published 2024).
“Also recorded” adds a separate entry of the source. Read-outs that look alike come from different tables or passages of the source.

Columns and labels:
P2X7 receptor = target: T1, P2X7 receptor (Homo sapiens, UniProt Q99572); type: cell-based; settings: 72 h; for P2X7 receptor activation (in words): JEG-Tox; for P2X7 activation (concentration): Table 4 summary
T1 construct: P2X7 receptor is expressed by human placenta and JEG-Tox; endogenous in cells; host or cells: JEG-3 human trophoblast cell line (ATCC HTB-36) cultured in 2.5% FBS (JEG-Tox)
T1 sequence (Q99572 1-595): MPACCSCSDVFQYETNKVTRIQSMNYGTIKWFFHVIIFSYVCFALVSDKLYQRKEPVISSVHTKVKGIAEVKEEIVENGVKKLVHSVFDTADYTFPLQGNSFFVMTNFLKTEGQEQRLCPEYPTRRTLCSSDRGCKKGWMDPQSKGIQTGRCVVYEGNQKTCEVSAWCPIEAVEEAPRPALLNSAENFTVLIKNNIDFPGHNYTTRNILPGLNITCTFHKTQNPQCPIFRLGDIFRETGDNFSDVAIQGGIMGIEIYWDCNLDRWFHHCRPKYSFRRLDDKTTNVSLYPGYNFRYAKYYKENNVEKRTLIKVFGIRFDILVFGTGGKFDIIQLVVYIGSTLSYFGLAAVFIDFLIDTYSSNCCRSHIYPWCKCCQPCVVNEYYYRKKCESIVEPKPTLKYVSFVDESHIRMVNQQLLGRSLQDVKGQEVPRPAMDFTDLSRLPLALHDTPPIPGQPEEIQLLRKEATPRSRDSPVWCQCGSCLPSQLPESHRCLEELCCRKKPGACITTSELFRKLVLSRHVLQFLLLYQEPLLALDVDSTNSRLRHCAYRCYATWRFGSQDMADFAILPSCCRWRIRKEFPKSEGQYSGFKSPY
Experimental: (§1) P2X7 cell death receptor activation was evaluated using the YO-PRO-1® assay (Rat et al. J Biol Methods. 2017 Jan. 20; 4(1):e64). YO-PRO-1® probe only enters into cells after P2X7 receptor activation-induced pore opening, and binds to DNA, emitting fluorescence. A 1 mM YO-PRO-1 stock solution was diluted at 1/500 in PBS just before use and distributed into the wells of the microplate. After a 10-minute incubation time at room temperature, fluorescence signal was read (λex=491 nm, λem=509 nm) with a Spark cytofluorometer.
as §1, with “al., 2017).” for “al. J Biol Methods. 2017 Jan. 20; 4(1):e64).”, “(λex=485” for “(λex=491”, “λem=531” for “λem=509”

[1] = Neutral Red cell viability assay on JEG-Tox cells, 72 h; type: cell-based, human; settings: human
Experimental: (§2) The JEG-3 human trophoblast cell line, derived from a human placental carcinoma, was obtained from the American Type Culture Collection (ATCC HTB-36). Cells were cultured in minimum Essential medium, supplemented with 10% fetal bovine serum (FBS), 1% L-glutamine, 0.5% penicillin and streptomycinin, in 75 cm2 polystyrene flasks. Cell cultures were maintained in a cell culture incubator (37° C., saturated humidity, 5% CO2). When the JEG-3 cells reached subconfluency, they were detached using trypsin-EDTA and counted. The cellular suspension was diluted and seeded either in 96-well microplates at a cellular density of 80,000 cells/mL or in 6-well microplates at 120,000 cells/mL, then kept at 37° C. for 24 h. The cells were incubated with EDCs according to example 1.
(§3) Cell viability was evaluated using the Neutral Red assay. The Neutral Red solution at 0.4% (m/v in water) was diluted in cell culture medium to obtain a working concentration of 50 μg/mL. […] The cells were then rinsed with PBS and lysed with a solution of acetic acid-ethanol (ethanol 50.6%, water 48.4% and acetic acid 1%). After homogenization, the fluorescence signal was scanned (λexc=540 nm, λem=600 nm) with a Tecan Spark microplate reader (Mannedorf, Switzerland). The cell viability was calculated compared to the control cells (the fluorescence of the control cells as 100% viability).

JEG-Tox cells [2] = assay: as above; type: cell-based, human; settings: 72 h
Experimental: as §2, §3

caspase-1 = assay: Caspase 1 activity, Caspase-Glo 1 Inflammasome Assay; type: cell-based, human; settings: 72 h; for Casp-1 activation (concentration): Table 4 summary; for caspase-1 activity compared to control: highest concentration tested
Experimental: Caspase 1 activity was evaluated using the Caspase-Glo® 1 1 Inflammasome Assay kit. The assay was performed according to the manufacturer's instructions. Luminescence was quantified with a Spark microplate reader.
Caspase 1 activity was evaluated using the Caspase-Glo®1 Inflammasome Assay kit. The assay was performed according to the manufacturer's instructions. Luminescence was quantified with a Spark microplate reader.

JEG-Tox cells [3] = assay: Chromatin condensation (Hoechst 33342) as a hallmark of apoptosis; type: cell-based, human; settings: 24 h
Experimental: The UV fluorescent probe Hoechst 33342 enters living and apoptotic cells, intercalating into DNA. The fluorescent signal is proportional to chromatin condensation in apoptosis. The cells were incubated with Hoechst 33342 at 10 μg/mL for 30 minutes at room temperature. The fluorescence signal was read (λex=360 nm, λem=460 nm) using a cytofluorometer (Spark).

caspase-9 = assay: Caspase 9 activity, Caspase-Glo 9 Assay; type: cell-based, human; settings: 10 μM
Experimental: Caspase 9 activity was evaluated using the Caspase-Glo® 9 Assay kit. The assay was performed according to the manufacturer's instructions. Luminescence was quantified with a Spark microplate reader.

JEG-3 cells = assay: Neutral red cell viability of JEG-3 cells with SLS or PFOA in 10% or 2.5% FBS; settings: for living cells: 2.5% FBS
Experimental: The choriocarcinoma-derived JEG-3 cell-line (ATCC® HTB-36™, Manassas, VA, USA), was grown as recommended by ATCC: Minimum Essential Medium Eagle's medium supplemented with 10% fetal bovine serum, 2 mM of glutamine, 50 IU/mL of penicillin and 50 IU/mL of streptomycin. Cells were detached using trypsin, counted, and then seeded at 80,000 cells/mL in 96-well microplates (200 μL by well) and Nunc® Lab-Tek® II Chamber Slide™ system for immunostaining.
Cells were incubated with sodium lauryl sulfate or perfluorooctanoic acid diluted in culture medium supplemented with either 2.5% or 10% FBS. After 24 hours, cell viability was evaluated using the neutral red assay. Neutral Red solution at 0.4% in water was diluted in culture medium with a ratio of 1:79 to give a final concentration of 50 μg/mL. Neutral Red was distributed in the plates for a 3-hour incubation time at 37° C. The cells were then rinsed with PBS to remove any remaining unincorporated dye. The dye was then released from the cells using a lysis solution (1% acetic acid, 50% ethanol and 49% H2O) and the fluorescence was measured (λex=540 nm, λem=600 nm) using Spark microplate fluorometer (Tecan, Mannedorf, Switzerland).

[4] = JEG-Tox cells, 50 μM, 72 h, read-out: cell viability
[5] = Table 4 summary, loss of viability >= 30% counted as cytotoxic

Row | Compound | P2X7 receptor activation compared to control (P2X7 receptor; 10 μM) [fold change] | P2X7 receptor activation (in words) (P2X7 receptor) | P2X7 activation (concentration) (P2X7 receptor) [µM] | cytotoxicity (concentration) (JEG-Tox cells [2]; [5]) | effect on caspase-1 activity (caspase-1) | Casp-1 activation (concentration) (caspase-1) | concentration at which chromatin condensation was initiated (JEG-Tox cells [3]) | further results
1 | CC12CCC(/C(=C/c3ccccc3)C1=O)C2(C)C (stereo not drawn) [3-benzylidene camphor] | 1.50 | triggered P2X7 receptor activation | 1 to 10 | 50 µM | no effect | no |  | viability at 72 h, 50 µM [1, 4]: 70%
2 | Clc1ccc(C(c2ccc(Cl)cc2)C(Cl)(Cl)Cl)cc1 [4,4′DDT] |  |  |  |  |  |  | 2 µg/mL | 
3 | CCC(C)(C)c1ccc(O)cc1 [4-tert-amylphenol] |  | triggered P2X7 receptor activation | 0.1 to 50 | no | activated caspase-1 | 50 µM |  | P2X7 receptor activation compared to control (P2X7 receptor; 50 μM): 1.36 fold change; concentration up to which no loss of cell viability was observed (JEG-Tox cells [2]): up to 50 μM; caspase-1 activity compared to control (caspase-1): 1.5 fold change
4 | CCCCC(CC)COC(=O)c1ccccc1C(=O)OCC(CC)CCCC (stereo not drawn) [DEHP, Di(2-ethylhexyl)phtalate] | 1.16 | triggered P2X7 receptor activation | 10 | 50 µM | no effect | no |  | caspase-9 activity compared to control (caspase-9): 1.20 fold change; viability at 72 h, 50 µM [1, 4]: 25%
5 | CCCCCCCCCCCCOS(=O)(=O)[O-].[Na+] [SLS, sodium lauryl sulfate] |  |  |  |  |  |  |  | living cells (JEG-3 cells; 30 μg/mL, 24 h): 37%; living cells (JEG-3 cells; 50 μg/mL, 24 h): 10%; effect on JEG-3 cell viability (JEG-3 cells; 10% FBS, all tested concentrations (up to 50 μg/mL), 24 h, sulfate): no effect; also recorded: did not observe any cell death; concentration inducing a dramatic loss of cell viability (JEG-3 cells; diluted in 2.5% FBS): 30000 ng/mL
6 | CCCCOC(=O)c1ccccc1C(=O)OCc1ccccc1 [benzyl butyl phthalate] | 1.36 | triggered P2X7 receptor activation | 0.1 to 10 | 50 µM | no effect | no |  | caspase-9 activity compared to control (caspase-9): 1.28 fold change; viability at 72 h, 50 µM ([1]; 50 μM, 72 h, read-out: cell viability): 40%
7 | CCCCOC(=O)c1ccccc1C(=O)OCCCC [dibutyl phthalate] | 1.6 | triggered P2X7 receptor activation | 0.01 to 50 |  | no effect | no |  | viability at 72 h, 50 µM [1]: 55%; cytotoxicity (concentration) (JEG-Tox cells [2]; human): 50 µM
8 | CC/C(=C(/CC)c1ccc(O)cc1)c1ccc(O)cc1 [diethylstilbestrol] |  | triggered P2X7 receptor activation | 7.5 | 15 µM | activated caspase-1 | 7.5 µM |  | P2X7 receptor activation compared to control (P2X7 receptor; 7.5 μM): 1.48 fold change; viability at 72 h, 15 µM ([1]; JEG-Tox cells, 15 μM, 72 h): 40%; caspase-1 activity compared to control (caspase-1): 1.84 fold change
9 | CCO [ethanol] |  |  |  |  |  |  | 2.5% | 
10 | OCCOc1ccccc1 [phenoxyethanol] |  |  |  |  |  |  | 0.15% | 
11 | CCCOC(=O)c1ccc(O)cc1 [propylparaben] |  | triggered P2X7 receptor activation | 1 to 100 |  | activated caspase-1 | 100 µM | 20 µg/mL | P2X7 receptor activation compared to control (P2X7 receptor; 100 μM): 1.69 fold change; viability at 72 h, 100 µM [1]: 87%; caspase-1 activity compared to control (caspase-1): 2.7 fold change
12 | CCOP(=S)(OCC)Oc1cnc2ccccc2n1 [quinalphos] |  |  |  |  |  |  | 0.3 µg/mL | 
13 | Oc1cc(Cl)ccc1Oc1ccc(Cl)cc1Cl [triclosan] |  | triggered P2X7 receptor activation | 1 | 10 µM | no effect | No |  | P2X7 receptor activation compared to control (P2X7 receptor; 1 μM): 1.13 fold change; viability at 72 h, 10 µM ([1]; JEG-Tox cells, 10 μM, 72 h): 60%
